Results from paper PMC9298182, “De novo design of type II topoisomerase inhibitors as potential antimicrobial agents targeting a novel binding region” (RSC Medicinal Chemistry, 2022).
Read-outs that look alike come from different tables or passages of the source. Marks after values point to notes of the source that are not given here.

Tests used:
[1] = tested on: S. aureus; settings: different S. aureus strain, printed in column S. aureus NCIMB 50080; cited from earlier work
[2] = tested on: E. coli; design: method as in PMID 28507124; settings: different E. coli strain, printed in column E. coli K12 MG1655; cited from earlier work
[3] = biological target: T1, E. coli topoisomerase IV (Escherichia coli, UniProt P0AFI2+P20083); design: method as in PMID 28507124; settings: read-out: E. coli topo IV IC50; cited from earlier work
[4] = biological target: E. coli DNA gyrase (Escherichia coli, UniProt P0AES4+P0AES6); assay: E. coli DNA gyrase supercoiling inhibition assay (gel-based); assay type: biochemical; settings: for IC50: supercoiling assay, mean of 2 or 3 experiments, semi-quantitative
[5] = tested on: S. aureus NCIMB 50080; assay: MIC, broth microdilution; assay type: cell-based
[6] = tested on: E. coli K12 MG1655 S83L; assay: MIC, broth microdilution, fluoroquinolone mutant strain; assay type: cell-based; settings: Escherichia coli, MG1655, read-out: E. coli K12 MG1655 S83L MIC
[7] = tested on: E. coli K12 MG1655; assay: MIC, broth microdilution; assay type: cell-based; settings: Escherichia coli, MG1655, read-out: E. coli K12 MG1655 MIC
[8] = biological target: T1, E. coli topoisomerase IV; assay: biochemical; assay type: biochemical
[9] = Staphylococcus aureus, NCIMB50080; read-out: S. aureus NCIMB 50080 MIC

Cl.NCC(NC(=O)c1cccc(-c2cccs2)c1)c1ccc(O)cc1 (stereo not drawn) [Compound 1]
S. aureus MIC [1]: 8 ^a μg mL^−1 | E. coli MIC [2]: 8 ^a μg mL^−1 | IC50 [3]: > 540 µM

NC[C@H](NC(=O)c1cccc(-c2ccccc2)c1)c1ccccc1 [Compound 2]
IC50 [4]: 60 µM

COc1ccccc1-c1cccc(C(=O)N[C@@H](CN)c2ccccc2)c1 [Compound 3]
IC50 [4]: 20 µM

CCOc1cccc(-c2cccc(C(=O)N[C@@H](CN)c3ccccc3)c2)c1 [Compound 4]
IC50 [4]: 20 µM

Cl.NC[C@H](NC(=O)c1cccc(-c2ccccc2C(F)(F)F)c1)c1ccccc1 [Compound 5]
MIC [5, 9]: 16 µg/mL | MIC [6]: 32 µg/mL | MIC [7]: 32 µg/mL | IC50 [4]: 21 µM | IC50 [8]: > 100 µM

CCOc1cccc(-c2cccc(C(=O)N[C@@H](CN)c3ccccc3)c2)c1F.Cl [Compound 6, N-[(1R)-2-amino-1-phenylethyl]-3'-ethoxy-2'-fluoro-[1,1'-biphenyl]-3-carboxamide hydrochloride]
MIC [5, 9]: 32 µg/mL | MIC [6]: 64 µg/mL | MIC [7]: 64 µg/mL | fold increase in binding affinity against gyrase vs. unsubstituted 2 ([4]; relative to compound 2): 5 fold | IC50 [4]: 12 µM | IC50 [8]: > 100 µM

CCOc1cc(-c2cccc(C(=O)N[C@@H](CN)c3ccccc3)c2)ccc1F.Cl [Compound 7]
MIC [5, 9]: 16 µg/mL | melting point: 219 to 221 °C | MIC [6]: 32 µg/mL | MIC [7]: 32 µg/mL | IC50 [4]: 17 µM | IC50 [8]: 64 µM | fold more potent against gyrase than topo IV ([8]; E. coli gyrase vs. E. coli topo IV): ~4 fold

NC[C@H](NC(=O)c1cccc(-c2cccc(O)c2)c1)c1ccccc1 [Compound 8]
IC50 [4]: 46 µM

Cl.NC[C@H](NC(=O)c1cccc(-c2ccccc2Cl)c1)c1ccccc1 [Compound 9]
melting point: 160.5 to 163 °C | IC50 [4]: 35 µM

NC[C@H](NC(=O)c1cccc(-c2cccc(Cl)c2)c1)c1ccccc1 [Compound 10]
IC50 [4]: 39 µM

Cl.NC[C@H](NC(=O)c1cccc(-c2cccc([N+](=O)[O-])c2)c1)c1ccccc1 [Compound 11]
MIC ([5]; Staphylococcus aureus, NCIMB50080, read-out: S. aureus NCIMB 50080 MIC): > 128 µg/mL | MIC [6]: > 128 µg/mL | MIC [7]: > 128 µg/mL | IC50 [4]: 73 µM | IC50 [8]: 94 µM

CC(=O)c1cccc(-c2cccc(C(=O)N[C@@H](CN)c3ccccc3)c2)c1.Cl [Compound 12]
melting point: ~ 238 °C (dec.) | IC50 [4]: 42 µM

COC(=O)c1cccc(-c2cccc(C(=O)N[C@@H](CN)c3ccccc3)c2)c1.Cl [Compound 13]
melting point: 212 to 215 °C | IC50 [4]: 24 µM

COC(=O)c1ccccc1-c1cccc(C(=O)N[C@@H](CN)c2ccccc2)c1.Cl [Compound 14]
melting point: 145 to 147 °C | IC50 [4]: 41 µM

Cl.NC[C@H](NC(=O)c1cccc(Br)c1)c1ccccc1 [Compound 15]
fold drop in gyrase activity compared to 2 ([4]; relative to compound 2): at least 3 fold | IC50 [4]: > 200 µM

Cc1ccccc1C(=O)N[C@@H](CN)c1ccccc1 [Compound 21]
IC50 [4]: > 100 µM

Cc1cccc(C(=O)N[C@@H](CN)c2ccccc2)c1 [Compound 22]
IC50 [4]: > 100 µM

Cc1ccc(C(=O)N[C@@H](CN)c2ccccc2)cc1.Cl [Compound 23]
gyrase inhibition judged visually from gel ([4]; at 100 µM, Fig. S2): some inhibition | IC50 [4]: > 100 µM

COc1ccccc1-c1cc(C(=O)N[C@@H](CN)c2ccccc2)ccc1C [Compound 24]
IC50 [4]: 153 µM

CCOc1cccc(-c2cc(C(=O)N[C@@H](CN)c3ccccc3)ccc2C)c1 [Compound 25]
IC50 [4]: 63 µM

CCOc1cc(C)cc(-c2cc(C(=O)N[C@@H](CN)c3ccccc3)ccc2C)c1 [Compound 26]
IC50 [4]: 56 µM

NC[C@H](NC(=O)c1cncc(-c2ccccc2Cl)c1)c1ccccc1 [Compound 27]
IC50 [4]: 35 µM

Cl.NC[C@@H](NC(=O)c1cccc(-c2ccccc2)c1)c1ccccc1 [Compound 28]
melting point: 205 to 207 °C | IC50 [4]: 76 µM

COc1ccccc1-c1cccc(C(=O)N[C@H](CN)c2ccccc2)c1 [Compound 29]
IC50 [4]: 36 µM

CCOc1cccc(-c2cccc(C(=O)N[C@H](CN)c3ccccc3)c2)c1.Cl [Compound 30]
fold drop in gyrase activity of (S)-enantiomer vs. (R)-enantiomer ([4]; 30 vs. 4): 9 fold | IC50 [4]: 180 µM

COc1ccccc1-c1cccc(C(=O)NC(CN)c2cccc(O)c2)c1.Cl (stereo not drawn) [Compound 31]
MIC [5, 9]: 128 µg/mL | MIC [6]: > 128 µg/mL | MIC [7]: > 128 µg/mL | IC50 [4]: 41 µM | IC50 [8]: > 100 µM

COc1ccccc1-c1cccc(C(=O)NC(CN)c2ccc(O)cc2)c1 (stereo not drawn) [Compound 32]
IC50 [4]: 45 µM

CCOc1cccc(-c2cccc(C(=O)NC(CN)c3cccc(O)c3)c2)c1 (stereo not drawn) [Compound 33]
IC50 [4]: 41 µM

CCOc1cccc(-c2cccc(C(=O)NC(CN)c3cccc(O)c3)c2)c1F (stereo not drawn) [Compound 34]
IC50 [4]: 62 µM

CCOc1cccc(-c2cccc(C(=O)NC(CN)c3ccc(O)cc3)c2)c1F (stereo not drawn) [Compound 35]
IC50 [4]: > 200 µM
